Measurements reported in PMC5071162 (ACS chemical neuroscience, 2016).
Read-outs that look alike come from different tables or passages of the source.

Molecular target: human GPR88 (Homo sapiens, UniProt Q9GZN0)
Assay: Lance cAMP assay using stable PPLS-HA-GPR88 CHO cells
Format: cell-based
Settings: for agonist activity in words: qualitative SAR statement, Lance cAMP assay

Chain of human GPR88 (Q9GZN0 whole entry): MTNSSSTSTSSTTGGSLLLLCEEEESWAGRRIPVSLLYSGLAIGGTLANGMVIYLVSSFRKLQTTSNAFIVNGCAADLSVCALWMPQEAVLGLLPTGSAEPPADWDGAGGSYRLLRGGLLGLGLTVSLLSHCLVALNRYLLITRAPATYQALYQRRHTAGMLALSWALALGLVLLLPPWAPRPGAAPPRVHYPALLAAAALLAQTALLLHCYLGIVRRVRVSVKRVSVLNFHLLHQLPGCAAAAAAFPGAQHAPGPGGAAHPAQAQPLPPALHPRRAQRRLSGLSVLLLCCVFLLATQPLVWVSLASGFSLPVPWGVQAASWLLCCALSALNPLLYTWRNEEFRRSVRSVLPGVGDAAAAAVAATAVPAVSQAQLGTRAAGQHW

Row | Compound | EC50 (EC50) | also measured
1 | CC[C@H](C)[C@H](N)CN(C(=O)[C@@H]1C[C@H]1c1ccccn1)c1ccc(-c2ccc(CC(C)C)cc2)cc1 (relative stereo) [5e, (1R*,2R*)-2-(Pyridin-2-yl)cyclopropanecarboxylic Acid [(2S,3S)-2-Amino-3-methylpentyl]-(4′-isobutylbiphenyl-4-yl)amide] | 271 nM | –
2 | CCCCCCc1ccc(-c2ccc(N(C[C@@H](N)[C@@H](C)CC)C(=O)[C@@H]3C[C@H]3c3ccccn3)cc2)cc1 (relative stereo) [5g, (1R*,2R*)-2-(Pyridin-2-yl)cyclopropanecarboxylic Acid [(2S,3S)-2-Amino-3-methylpentyl]-(4′-hexylbiphenyl-4-yl)amide] | 136 nM | –
3 | CC[C@H](C)[C@H](N)CN(C(=O)[C@@H]1C[C@H]1c1ccccn1)c1ccc(-c2ccc(C(=O)N(C)C)cc2)cc1 (relative stereo) [5aa, (1R*,2R*)-2-(Pyridin-2-yl)cyclopropanecarboxylic Acid [(2S,3S)-2-Amino-3-methylpentyl]-[4′-(dimethylcarbamoyl)biphenyl-4-yl]-amide] | 3320 nM | agonist activity in words: least activity in the series
4 | CC[C@H](C)[C@H](N)CN(C(=O)[C@@H]1C[C@H]1c1ccccn1)c1ccc(-c2ccc(C)cc2)cc1 (relative stereo) [5a, (1R*,2R*)-2-(Pyridin-2-yl)cyclopropanecarboxylic Acid [(2S,3S)-2-Amino-3-methylpentyl]-(4′-methylbiphenyl-4-yl)amide] | 104 nM | EC50 (EC50 (nM)): 104 nM
5 | CC[C@H](C)[C@H](N)CN(C(=O)[C@@H]1C[C@H]1c1ccccn1)c1ccc(-c2ccc(C(F)(F)F)cc2)cc1 (relative stereo) [5b, (1R*,2R*)-2-(Pyridin-2-yl)cyclopropanecarboxylic Acid [(2S,3S)-2-Amino-3-methylpentyl]-(4′-trifluoromethylbiphenyl-4-yl)amide] | 187 nM | –
6 | CC[C@H](C)[C@H](N)CN(C(=O)[C@@H]1C[C@H]1c1ccccn1)c1ccc(-c2ccc(C(N)=O)cc2)cc1 (relative stereo) [5z, (1R*,2R*)-2-(Pyridin-2-yl)cyclopropanecarboxylic Acid [(2S,3S)-2-Amino-3-methylpentyl]-(4′-carbamoylbiphenyl-4-yl)amide] | – | agonist activity in words: least activity in the series
7 | (1R*,2R*)-2-(Pyridin-2-yl)cyclopropanecarboxylic Acid [(2S,3S)-2-Amino-3-methylpentyl]-(4′-benzylphenyl-4-yl)amide [4f] | – | agonist activity in words: deteriorated activity
8 | CC[C@H](C)[C@H](N)CN(C(=O)[C@@H]1C[C@H]1c1ccccn1)c1ccc(-c2ccc3c(c2)OCO3)cc1 (relative stereo) [5o, (1R*,2R*)-2-(Pyridin-2-yl)cyclopropanecarboxylic Acid [(2S,3S)-2-Amino-3-methylpentyl]-(3′,4′-methylenedioxybiphenyl-4-yl)amide] | 204 nM | EC50 (EC50 (nM)): 204 nM
9 | CCc1ccc(-c2ccc(N(C[C@@H](N)[C@@H](C)CC)C(=O)[C@@H]3C[C@H]3c3ccccn3)cc2)cc1 (relative stereo) [5c, (1R*,2R*)-2-(Pyridin-2-yl)cyclopropanecarboxylic Acid [(2S,3S)-2-Amino-3-methylpentyl]-(4′-ethylbiphenyl-4-yl)amide] | 85 nM | EC50 (EC50 (nM)): 85 nM
10 | CC[C@H](C)[C@H](N)CN(C(=O)[C@@H]1C[C@H]1c1ccccn1)c1ccc(-c2ccc(N(C)C)cc2)cc1 (relative stereo) [5x, (1R*,2R*)-2-(Pyridin-2-yl)cyclopropanecarboxylic Acid [(2S,3S)-2-Amino-3-methylpentyl]-[4′-(dimethylamino)biphenyl-4-yl]amide] | 294 nM | –
11 | CCOc1ccc(-c2ccc(N(C[C@@H](N)[C@@H](C)CC)C(=O)[C@@H]3C[C@H]3c3ccccn3)cc2)cc1 (relative stereo) [5l, (1R*,2R*)-2-(Pyridin-2-yl)cyclopropanecarboxylic Acid [(2S,3S)-2-Amino-3-methylpentyl]-(4′-ethoxybiphenyl-4-yl)amide] | 82 nM | EC50 (EC50 (nM)): 82 nM
12 | CC[C@H](C)[C@H](N)CN(C(=O)[C@@H]1C[C@H]1c1ccccn1)c1ccc(-c2ccc(-c3ccccc3)cc2)cc1 (relative stereo) [5i, (1R*,2R*)-2-(Pyridin-2-yl)cyclopropanecarboxylic Acid [(2S,3S)-2-Amino-3-methylpentyl]-(4′-phenylbiphenyl-4-yl)amide] | 289 nM | –
13 | (1R*,2R*)-2-(Pyridin-2-yl)cyclopropanecarboxylic Acid [(2S,3S)-2-Amino-3-methylpentyl]-(4′-phenoxyphenyl-4-yl)amide [4e] | – | agonist activity in words: deteriorated activity
14 | CC[C@H](C)[C@H](N)CN(C(=O)[C@@H]1C[C@H]1c1ccccn1)c1ccc(-c2ccc([N+](=O)[O-])cc2)cc1 (relative stereo) [5s, (1R*,2R*)-2-(Pyridin-2-yl)cyclopropanecarboxylic Acid [(2S,3S)-2-Amino-3-methylpentyl]-(4′-nitrobiphenyl-4-yl)amide] | 274 nM | –
15 | CC[C@H](C)[C@H](N)CN(C(=O)[C@@H]1C[C@H]1c1ccccn1)c1ccc(-c2ccc(NC(C)=O)cc2)cc1 (relative stereo) [5y, (1R*,2R*)-2-(Pyridin-2-yl)cyclopropanecarboxylic Acid [(2S,3S)-2-Amino-3-methylpentyl]-(4′-acetamidobiphenyl-4-yl)amide] | – | agonist activity in words: least activity in the series
16 | CC[C@H](C)[C@H](N)CN(C(=O)[C@@H]1C[C@H]1c1ccccn1)c1ccc(-c2ccc(C3CCCCC3)cc2)cc1 (relative stereo) [5h, (1R*,2R*)-2-(Pyridin-2-yl)cyclopropanecarboxylic Acid [(2S,3S)-2-Amino-3-methylpentyl]-(4′-cyclohexylbiphenyl-4-yl)amide] | 176 nM | EC50 (pEC50): 174 nM
17 | CC[C@H](C)[C@H](N)CN(C(=O)[C@@H]1C[C@H]1c1ccccn1)c1ccc(-c2ccc(C(C)C)cc2)cc1 (relative stereo) [5d, (1R*,2R*)-2-(Pyridin-2-yl)cyclopropanecarboxylic Acid [(2S,3S)-2-Amino-3-methylpentyl]-(4′-isopropylbiphenyl-4-yl)amide] | 260 nM | –
18 | CC[C@H](C)[C@H](N)CN(C(=O)[C@@H]1C[C@H]1c1ccccn1)c1ccc(-c2ccc(OC(F)(F)F)cc2)cc1 (relative stereo) [5k, (1R*,2R*)-2-(Pyridin-2-yl)cyclopropanecarboxylic Acid [(2S,3S)-2-Amino-3-methylpentyl]-(4′-trifluoromethoxybiphenyl-4-yl)amide] | 139 nM | –
19 | CC[C@H](C)[C@H](N)CN(C(=O)[C@@H]1C[C@H]1c1ccccn1)c1ccc(-c2ccc(C(C)=O)cc2)cc1 (relative stereo) [5t, (1R*,2R*)-2-(Pyridin-2-yl)cyclopropanecarboxylic Acid [(2S,3S)-2-Amino-3-methylpentyl]-(4′-acetylbiphenyl-4-yl)amide] | 351 nM | –
20 | CC[C@H](C)[C@H](N)CN(C(=O)[C@@H]1C[C@H]1c1ccccn1)c1ccc(-c2ccc(O)cc2)cc1 (relative stereo) [5v, (1R*,2R*)-2-(Pyridin-2-yl)cyclopropanecarboxylic Acid [(2S,3S)-2-Amino-3-methylpentyl]-(4′-hydroxybiphenyl-4-yl)amide] | 2860 nM | agonist activity in words: significant decrease in activity
21 | CC[C@H](C)[C@H](N)CN(C(=O)[C@@H]1C[C@H]1c1ccccn1)c1ccc(-c2ccc(C(C)(C)C)cc2)cc1 (relative stereo) [5f, (1R*,2R*)-2-(Pyridin-2-yl)cyclopropanecarboxylic Acid [(2S,3S)-2-Amino-3-methylpentyl]-(4′-tert-butylbiphenyl-4-yl)amide] | 515 nM | –
22 | CC[C@H](C)[C@H](N)CN(C(=O)[C@@H]1C[C@H]1c1ccccn1)c1ccc(-c2ccc(Cl)cc2)cc1 (relative stereo) [5q, (1R*,2R*)-2-(Pyridin-2-yl)cyclopropanecarboxylic Acid [(2S,3S)-2-Amino-3-methylpentyl]-(4′-chlorobiphenyl-4-yl)amide] | 213 nM | –
23 | CC[C@H](C)[C@H](N)CN(C(=O)[C@@H]1C[C@H]1c1ccccn1)c1ccc(-c2ccc(OC(C)C)cc2)cc1 (relative stereo) [5m, (1R*,2R*)-2-(Pyridin-2-yl)cyclopropanecarboxylic Acid [(2S,3S)-2-Amino-3-methylpentyl]-(4′-isopropoxybiphenyl-4-yl)amide] | – | EC50: 77 nM
24 | CC[C@H](C)[C@H](N)CN(C(=O)[C@@H]1C[C@H]1c1ccccn1)c1ccc(-c2ccccc2)cc1 (relative stereo) [4d, (1R*,2R*)-2-(Pyridin-2-yl)cyclopropanecarboxylic Acid [(2S,3S)-2-Amino-3-methylpentyl]-(biphenyl-4-yl)amide] | – | EC50: 283 nM
25 | CC[C@H](C)[C@H](N)CN(C(=O)[C@@H]1C[C@H]1c1ccccn1)c1ccc(-c2ccc(C#N)cc2)cc1 (relative stereo) [5r, (1R*,2R*)-2-(Pyridin-2-yl)cyclopropanecarboxylic Acid [(2S,3S)-2-Amino-3-methylpentyl]-(4′-cyanobiphenyl-4-yl)amide] | 197 nM | –
26 | CCOC(=O)c1ccc(-c2ccc(N(C[C@@H](N)[C@@H](C)CC)C(=O)[C@@H]3C[C@H]3c3ccccn3)cc2)cc1 (relative stereo) [5u, (1R*,2R*)-2-(Pyridin-2-yl)cyclopropanecarboxylic Acid [(2S,3S)-2-Amino-3-methylpentyl]-(4′-ethoxycarbonylbiphenyl-4-yl)amide] | 257 nM | –
27 | (1R*,2R*)-2-(Pyridin-2-yl)cyclopropanecarboxylic Acid [(2S,3S)-2-Amino-3-methylpentyl]-(4′-phenethylphenyl-4-yl)amide [4g] | – | agonist activity in words: deteriorated activity
28 | CC[C@H](C)[C@H](N)CN(C(=O)[C@@H]1C[C@H]1c1ccccn1)c1ccc(-c2ccc(OC)c(OC)c2)cc1 (relative stereo) [5n, (1R*,2R*)-2-(Pyridin-2-yl)cyclopropanecarboxylic Acid [(2S,3S)-2-Amino-3-methylpentyl]-(3′,4′-dimethoxybiphenyl-4-yl)amide] | 917 nM | fold loss of activity: approximately 10 fold
